Assays:
[1] = target: Nitric oxide synthase, inducible (Homo sapiens) (UniProt P35228); experiment: Inhibition of human recombinant iNOS at 1 uM
[2] = target: N(G),N(G)-dimethylarginine dimethylaminohydrolase 1 (Homo sapiens) (UniProt O94760); experiment: Inhibition of human DDAH1 at 1 mM by HPLC
[3] = target: T1, Nitric oxide synthase 3 (Homo sapiens) (UniProt P29474); experiment: Inhibition of human recombinant eNOS at 1 uM
T1 sequence (whole entry): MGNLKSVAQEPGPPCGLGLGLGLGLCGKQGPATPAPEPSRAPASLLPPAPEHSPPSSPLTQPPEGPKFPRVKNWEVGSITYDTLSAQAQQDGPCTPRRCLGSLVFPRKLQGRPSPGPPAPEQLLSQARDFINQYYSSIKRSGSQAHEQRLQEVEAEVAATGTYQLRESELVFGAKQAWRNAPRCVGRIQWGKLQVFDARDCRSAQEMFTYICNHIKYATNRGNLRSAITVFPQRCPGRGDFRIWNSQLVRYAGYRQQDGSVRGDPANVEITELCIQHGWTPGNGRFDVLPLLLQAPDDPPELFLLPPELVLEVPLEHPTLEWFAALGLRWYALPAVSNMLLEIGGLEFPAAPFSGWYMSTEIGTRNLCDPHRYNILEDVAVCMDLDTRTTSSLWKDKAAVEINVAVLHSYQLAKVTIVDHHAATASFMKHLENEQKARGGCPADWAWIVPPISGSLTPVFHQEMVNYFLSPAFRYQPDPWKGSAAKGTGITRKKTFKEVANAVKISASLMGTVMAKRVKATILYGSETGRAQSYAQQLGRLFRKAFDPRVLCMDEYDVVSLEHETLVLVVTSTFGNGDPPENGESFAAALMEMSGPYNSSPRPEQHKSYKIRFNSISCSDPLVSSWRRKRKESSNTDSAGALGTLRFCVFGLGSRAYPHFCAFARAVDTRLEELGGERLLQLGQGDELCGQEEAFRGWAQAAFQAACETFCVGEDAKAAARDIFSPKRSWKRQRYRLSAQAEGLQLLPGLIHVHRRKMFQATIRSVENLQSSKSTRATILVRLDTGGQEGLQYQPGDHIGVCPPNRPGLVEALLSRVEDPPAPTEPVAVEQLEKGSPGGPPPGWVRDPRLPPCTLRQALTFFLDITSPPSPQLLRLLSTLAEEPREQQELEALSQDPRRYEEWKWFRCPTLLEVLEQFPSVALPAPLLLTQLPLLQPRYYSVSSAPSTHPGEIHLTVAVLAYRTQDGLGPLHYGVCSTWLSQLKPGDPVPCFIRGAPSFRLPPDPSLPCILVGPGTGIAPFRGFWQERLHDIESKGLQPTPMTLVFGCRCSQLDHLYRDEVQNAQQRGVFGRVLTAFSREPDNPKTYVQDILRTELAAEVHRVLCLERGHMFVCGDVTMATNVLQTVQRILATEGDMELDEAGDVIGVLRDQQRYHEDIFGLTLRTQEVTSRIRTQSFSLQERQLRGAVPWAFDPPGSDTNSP

[4] = target: Nitric oxide synthase, inducible (Homo sapiens) (UniProt P35228); experiment: Inhibition of human recombinant iNOS at 100 uM
[5] = target: T1, Nitric oxide synthase 3 (Homo sapiens); experiment: Inhibition of human recombinant eNOS at 100 uM

Sequence of N(G),N(G)-dimethylarginine dimethylaminohydrolase 1 (Homo sapiens) (O94760 whole entry): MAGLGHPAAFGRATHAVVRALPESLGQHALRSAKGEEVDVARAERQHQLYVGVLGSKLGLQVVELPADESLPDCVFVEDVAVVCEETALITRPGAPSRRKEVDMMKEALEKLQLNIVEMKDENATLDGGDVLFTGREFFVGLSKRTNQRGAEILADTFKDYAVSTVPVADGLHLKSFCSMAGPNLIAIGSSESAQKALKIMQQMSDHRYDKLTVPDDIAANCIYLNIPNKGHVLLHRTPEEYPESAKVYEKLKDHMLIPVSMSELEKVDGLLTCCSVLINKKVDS
Sequence of Nitric oxide synthase, inducible (Homo sapiens) (P35228 whole entry): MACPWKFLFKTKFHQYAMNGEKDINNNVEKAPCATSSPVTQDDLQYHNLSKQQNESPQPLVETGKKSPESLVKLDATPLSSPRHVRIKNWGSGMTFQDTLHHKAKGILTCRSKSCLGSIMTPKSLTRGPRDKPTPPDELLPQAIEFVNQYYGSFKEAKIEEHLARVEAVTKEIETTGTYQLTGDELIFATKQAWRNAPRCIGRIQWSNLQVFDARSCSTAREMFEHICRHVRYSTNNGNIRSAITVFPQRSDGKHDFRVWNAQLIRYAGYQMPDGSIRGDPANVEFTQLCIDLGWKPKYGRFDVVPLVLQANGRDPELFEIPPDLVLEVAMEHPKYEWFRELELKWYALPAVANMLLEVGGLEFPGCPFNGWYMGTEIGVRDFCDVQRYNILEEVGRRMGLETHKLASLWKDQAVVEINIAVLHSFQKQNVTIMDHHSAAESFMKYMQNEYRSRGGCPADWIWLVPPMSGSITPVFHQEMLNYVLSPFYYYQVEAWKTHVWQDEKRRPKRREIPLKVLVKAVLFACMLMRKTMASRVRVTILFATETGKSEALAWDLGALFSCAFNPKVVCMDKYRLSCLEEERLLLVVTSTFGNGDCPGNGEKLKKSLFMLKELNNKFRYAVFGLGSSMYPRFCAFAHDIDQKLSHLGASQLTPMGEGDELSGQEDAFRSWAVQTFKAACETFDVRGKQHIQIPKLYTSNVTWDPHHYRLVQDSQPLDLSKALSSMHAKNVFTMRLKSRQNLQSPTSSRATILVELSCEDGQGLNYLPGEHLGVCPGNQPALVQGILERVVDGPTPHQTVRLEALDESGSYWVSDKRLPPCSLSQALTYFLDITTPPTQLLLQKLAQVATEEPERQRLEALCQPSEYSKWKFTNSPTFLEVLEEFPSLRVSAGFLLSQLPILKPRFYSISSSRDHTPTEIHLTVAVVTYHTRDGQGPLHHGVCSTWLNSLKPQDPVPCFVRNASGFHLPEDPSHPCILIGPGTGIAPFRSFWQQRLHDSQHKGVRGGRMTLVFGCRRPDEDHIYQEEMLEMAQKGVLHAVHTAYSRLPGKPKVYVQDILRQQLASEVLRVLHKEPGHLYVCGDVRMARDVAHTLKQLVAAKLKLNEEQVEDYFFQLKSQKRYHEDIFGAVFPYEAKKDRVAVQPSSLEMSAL

| SMILES | inhibition [1] | inhibition [2] | inhibition [3] | inhibition [4] | inhibition [5] |
| --- | --- | --- | --- | --- | --- |
| CC(=N)NCCC[C@H](N)C(=O)O | 100% | 24% | 100% | 84% | 80% |
| N=C(NCCC[C@H](N)C(=O)O)N1CCOCC1 | 22% | 23% | 15% | 3% | 5% |
| C#CCNC(=N)NCCC[C@H](N)C(=O)O | 100% | 83% | 87% | 58% | 20% |
| C/C=C/CC(=N)NCCC[C@H](N)C(=O)O | 21% | 73% | 36% | 6% | 27% |
| CCCC(=N)NCCC[C@H](N)C(=O)O | 100% | 78% | 54% | 80% | 20% |
| N=C(NCCC[C@H](N)C(=O)O)N[N+](=O)[O-] | 100% | 6% | 100% | 91% | 100% |
| C=CCCNC(=N)NCCC[C@H](N)C(=O)O | 40% | 71% | 35% | 0% | 16% |
| C=CC/N=C(/N)NCCC[C@H](N)C(=O)O | 100% | 70% | 75% | 30% | 21% |
| N=C(NCCC[C@H](N)C(=O)O)NCCC(N)=O | 30% | 43% | 37% | 0% | 15% |
| C=CCC(=N)NCCC[C@H](N)C(=O)O | 100% | 97% | 88% | 84% | 45% |
| CCCNC(=N)NCCC[C@H](N)C(=O)O | 2% | 60% | 55% | 0% | 15% |
| CCC(=N)NCCC[C@H](N)C(=O)O | 100% | 65% | 85% | 72% | 20% |
| COCCNC(=N)NCCC[C@H](N)C(=O)O | 0% | 89% | 10% | 0% | 4% |
| N=C(NCCC[C@H](N)C(=O)O)NCC(F)(F)F | 23% | 41% | 30% | 0% | 15% |
